Experimental findings from ChEMBL document CHEMBL1134100, “An unhydrolyzable analogue of N-(4-hydroxyphenyl)retinamide. synthesis and preliminary biological studies” (Bioorg Med Chem Lett, 2001) are described below.

Usually Ki stands for the dissociation constant of the complex between target and ligand, obtained from inhibition or displacement. Read a low Ki as a stronger hold on the target.

The structures appear in SMILES notation. Some results are limits rather than exact numbers.

Assay [1] relates to Rattus norvegicus. In words: Effect on total mammary tumor volume in female rats on day 21 after a diet additive of 2 mmol/kg (+/-S.E) (p<0.05). The format is functional.
For assay [2], the target named is T1, Retinoic acid receptor gamma (Homo sapiens, UniProt P13631).
T1 sequence (P13631 whole entry): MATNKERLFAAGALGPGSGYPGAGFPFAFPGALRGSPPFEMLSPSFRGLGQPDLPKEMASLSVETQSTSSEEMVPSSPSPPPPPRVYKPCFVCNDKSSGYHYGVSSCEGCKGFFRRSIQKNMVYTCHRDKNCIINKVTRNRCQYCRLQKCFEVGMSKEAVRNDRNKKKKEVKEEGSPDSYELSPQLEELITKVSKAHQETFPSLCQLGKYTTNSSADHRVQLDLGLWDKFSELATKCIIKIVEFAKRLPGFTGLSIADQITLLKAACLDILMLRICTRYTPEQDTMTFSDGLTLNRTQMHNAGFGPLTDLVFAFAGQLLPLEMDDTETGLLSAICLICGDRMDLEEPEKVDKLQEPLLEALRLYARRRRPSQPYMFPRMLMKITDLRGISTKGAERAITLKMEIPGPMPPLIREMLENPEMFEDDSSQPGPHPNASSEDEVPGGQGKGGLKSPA
The assay is described as follows: Binding affinity against Retinoic acid receptor gamma.

Assay [3] deals with Rattus norvegicus. The assay is described as follows: Effect on total mammary tumor volume in female rats on day 7 after a diet additive of 2 mmol/kg (+/-S.E) (p<0.05). The format is functional.
Assay [4] has as its system Rattus norvegicus. In words: Effect on total mammary tumor volume in female rats on day 1 after a diet additive of 2 mmol/kg (+/-S.E) (p<0.05). The format is functional.
Assay [5] relates to Rattus norvegicus. In words: % change in the mean tumor volume in female rats on 21 days after a diet additive of 2 mmol/kg of the compound. It is filed as functional.
In assay [6] the test system is Rattus norvegicus. The assay is described as follows: Effect on total mammary tumor volume in female rats on day 14 after a diet additive of 2 mmol/kg (+/-S.E) (p<0.05). It is filed as functional.

For `CC1=C(/C=C/C(C)=C/C=C/C(C)=C/C(=O)Nc2ccc(O)cc2)C(C)(C)CCC1` [FENRETINIDE], the Mean tumor volume was determined as 0.05 cm*3 with Rattus norvegicus [1], 0.17 cm*3 in the assay on Rattus norvegicus [3], 0.2 cm*3 in the assay on Rattus norvegicus [4] and 0.1 cm*3 in the assay on Rattus norvegicus [6]. In addition, the Ki in assay [2] is > 0.4 µM. Further, in the assay on Rattus norvegicus [5], the Change is given as -77%.

Turning to `CC1=C(/C=C/C(C)=C/C=C/C(C)=C/C(=O)O)C(C)(C)CCC1` [TRETINOIN], the Mean tumor volume in the assay on Rattus norvegicus [1] was found to be 0.18 cm*3; in the assay on Rattus norvegicus [3], 0.46 cm*3; in the assay with Rattus norvegicus [4], 0.69 cm*3; in the assay with Rattus norvegicus [6] it was 0.27 cm*3. Further, in the assay on Rattus norvegicus [5], the Change was -74%.

As for `CC1=C(/C=C/C(C)=C/C=C/C(C)=C/C(=O)Cc2ccc(O)cc2)C(C)(C)CCC1`, the Mean tumor volume in the assay on Rattus norvegicus [1] was 0.09 cm*3; in the assay with Rattus norvegicus [3], 0.47 cm*3; in the assay with Rattus norvegicus [4], 0.59 cm*3; with Rattus norvegicus [6], 0.15 cm*3. Also, the Ki in assay [2] is > 4 µM. Further, the Change with Rattus norvegicus [5] is -85%.
